This is an account of results in US12171756B2, “NLRP3 modulators” (Innate Tumor Immunity, Inc., priority 2017, dated 2024).

Test [1] concerns IL-1β production in PMA-differentiated THP-1 cells. The test is described as follows: Measurement of IL-1β production in PMA-differentiated THP-1 cells (ELISA, 4 hours). Format: cell-based, human. The conditions noted are these: Homo sapiens, THP-1, human IL-1β production, assayed using one or more of the described procedures, read-out: NLRP3 hIL1B IC50. The method in brief:
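THP-1 cells differentiated with PMA (10 μg/ml, 24 h), replated at 1×10^6 cells/ml in RPMI with 2% FBS and exposed to compounds (e.g. 0.1–100 μM, 1% DMSO final) for 4 hours. IL-1β in cell-free supernatant quantified by ELISA against vehicle control.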
(In general: In an ELISA, binding on a coated surface is turned into a signal by an enzyme label.)

In another test the target is T1, human TLR7 (Homo sapiens, UniProt Q9NYK1).
T1 construct: host or cells: human HEK-Blue cells (HEK293-derived) co-expressing TLR7 and an NF-kB/AP1-inducible SEAP reporter
T1 sequence (Q9NYK1 27-1049): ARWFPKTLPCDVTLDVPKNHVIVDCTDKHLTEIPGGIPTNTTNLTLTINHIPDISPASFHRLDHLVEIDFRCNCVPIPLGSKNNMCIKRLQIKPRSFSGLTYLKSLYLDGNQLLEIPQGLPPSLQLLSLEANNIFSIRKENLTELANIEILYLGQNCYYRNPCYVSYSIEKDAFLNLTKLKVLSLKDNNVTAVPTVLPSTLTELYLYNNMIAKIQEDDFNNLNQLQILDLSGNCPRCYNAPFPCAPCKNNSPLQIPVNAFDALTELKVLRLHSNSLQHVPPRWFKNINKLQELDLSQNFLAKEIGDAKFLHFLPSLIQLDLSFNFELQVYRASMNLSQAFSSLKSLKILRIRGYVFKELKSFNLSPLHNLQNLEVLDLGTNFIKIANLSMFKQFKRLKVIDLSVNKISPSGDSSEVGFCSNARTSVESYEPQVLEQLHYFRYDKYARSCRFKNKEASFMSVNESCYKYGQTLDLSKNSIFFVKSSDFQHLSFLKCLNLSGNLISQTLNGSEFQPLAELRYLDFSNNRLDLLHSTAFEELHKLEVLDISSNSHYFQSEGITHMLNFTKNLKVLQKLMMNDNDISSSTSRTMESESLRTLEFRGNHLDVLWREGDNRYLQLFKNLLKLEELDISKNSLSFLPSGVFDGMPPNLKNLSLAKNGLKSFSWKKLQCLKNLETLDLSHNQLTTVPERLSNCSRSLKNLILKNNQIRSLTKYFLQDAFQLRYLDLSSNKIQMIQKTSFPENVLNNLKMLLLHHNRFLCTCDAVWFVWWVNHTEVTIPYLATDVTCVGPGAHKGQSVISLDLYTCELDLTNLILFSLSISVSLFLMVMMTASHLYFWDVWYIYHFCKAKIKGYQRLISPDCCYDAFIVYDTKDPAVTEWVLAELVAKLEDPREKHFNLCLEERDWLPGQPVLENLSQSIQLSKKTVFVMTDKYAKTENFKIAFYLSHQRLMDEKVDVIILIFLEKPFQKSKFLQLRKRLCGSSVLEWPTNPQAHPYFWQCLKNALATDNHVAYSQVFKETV
Briefly: In vitro human TLR7 binding reporter assay (HEK-Blue, NF-kB/AP1-inducible SEAP). Type of test: cell-based. The conditions noted are these: HEK-Blue human TLR7 SEAP reporter cells; activity range classes; read-out: TLR7 Agonist EC50. The method in brief:
(§1)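 EC50s come from NF-kB/AP1-driven SEAP secretion in HEK-Blue cells expressing TLR7 or TLR8, measured with Quanti-Blue after an 18 h compound incubation. Maximal response is defined by a 50 μM reference standard.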
On the technique in general: In a reporter assay the amount or activity of a reporter protein is the signal.

Another test concerns the target T2, human TLR8 (Homo sapiens, UniProt Q9NR97).
T2 construct: host or cells: human HEK-Blue cells (HEK293-derived) co-expressing TLR8 and an NF-kB/AP1-inducible SEAP reporter
T2 sequence (Q9NR97 27-1041): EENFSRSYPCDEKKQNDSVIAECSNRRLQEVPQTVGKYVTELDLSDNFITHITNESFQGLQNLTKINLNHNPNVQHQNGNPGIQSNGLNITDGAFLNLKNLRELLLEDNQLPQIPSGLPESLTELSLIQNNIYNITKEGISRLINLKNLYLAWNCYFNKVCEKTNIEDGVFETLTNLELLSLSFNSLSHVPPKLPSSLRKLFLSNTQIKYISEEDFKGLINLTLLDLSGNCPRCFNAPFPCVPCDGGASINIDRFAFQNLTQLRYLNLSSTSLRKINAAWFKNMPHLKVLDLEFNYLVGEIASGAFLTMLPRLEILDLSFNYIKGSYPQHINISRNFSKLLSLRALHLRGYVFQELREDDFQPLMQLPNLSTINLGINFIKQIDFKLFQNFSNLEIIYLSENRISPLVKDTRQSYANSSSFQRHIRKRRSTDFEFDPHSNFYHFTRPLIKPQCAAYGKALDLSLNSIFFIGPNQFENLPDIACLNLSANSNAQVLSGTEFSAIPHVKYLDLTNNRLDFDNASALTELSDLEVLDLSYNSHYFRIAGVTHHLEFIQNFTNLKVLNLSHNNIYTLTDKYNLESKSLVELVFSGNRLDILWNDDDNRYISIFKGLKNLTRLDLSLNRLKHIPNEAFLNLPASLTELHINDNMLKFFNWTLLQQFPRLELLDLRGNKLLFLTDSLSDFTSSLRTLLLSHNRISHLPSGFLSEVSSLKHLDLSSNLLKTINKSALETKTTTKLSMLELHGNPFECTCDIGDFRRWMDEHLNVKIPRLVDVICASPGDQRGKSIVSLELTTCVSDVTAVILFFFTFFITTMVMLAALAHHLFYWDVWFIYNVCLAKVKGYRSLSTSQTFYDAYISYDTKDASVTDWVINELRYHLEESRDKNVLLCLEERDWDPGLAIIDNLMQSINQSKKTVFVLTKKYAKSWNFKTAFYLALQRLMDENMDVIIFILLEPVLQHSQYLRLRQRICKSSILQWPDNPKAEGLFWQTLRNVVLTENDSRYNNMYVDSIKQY
The test is described as follows: In vitro human TLR8 binding reporter assay (HEK-Blue, NF-kB/AP1-inducible SEAP). Type of test: cell-based. The conditions noted are these: HEK-Blue human TLR8 SEAP reporter cells; activity range classes; read-out: TLR8 Agonist EC50. The method in brief: as §1

As to `Nc1cc(NCCc2cccnn2)c2ccc(-c3cccs3)cc2n1` [Compound 342, N4-(2-(pyridazin-3-yl)ethyl)-7-(thiophen-2-yl)quinolin-2,4-diamine], the IC50 in test [1] is 1.1 µM. For the same molecule, the EC50 on human TLR7 and at human TLR8 was more than 100 µM each time.
For the molecule `Nc1cc(NCCc2cccnn2)c2ccc(-n3cccn3)cc2n1` [Compound 343, 7-(1H-pyrazol-1-yl)-N4-(2-(pyridazin-3-yl)ethyl)quinoline-2,4-diamine], the 50% inhibitory concentration (IC50) in test [1] turned out to be 0.61 µM. For the same molecule, the EC50 at human TLR7 and on human TLR8 was more than 100 µM in each case.
For `Nc1cc(NCCC2CCOCC2)c2ccc(-c3cc[nH]n3)cc2n1` [Compound 344, 7-(1H-pyrazol-3-yl)-N4-(2-(tetrahydro-2H-pyran-4-yl)ethyl)quinoline-2,4-diamine], the IC50 in test [1] is 1.11 µM. For the same molecule, the EC50 on human TLR7 and at human TLR8 was more than 100 µM each time.
Regarding `Nc1cc(NCCC2CCOCC2)c2ccc(-c3ccsc3)cc2n1` [Compound 345, N4-(2-(tetrahydro-2H-pyran-4-yl)ethyl)-7-(thiophen-3-yl)quinoline-2,4-diamine], in test [1], the IC50 is 1.77 µM. Further, the concentration giving a half-maximal response (EC50) on human TLR7 and at human TLR8 was more than 100 µM each time.
As to `Nc1cc(-c2cn[nH]c2)c2ccc(-c3ccn[nH]3)cc2n1` [Compound 347, 4-(1H-pyrazol-4-yl)-7-(1H-pyrazol-5-yl)quinolin-2-amine], the IC50 in test [1] came to 1.18 µM. For the same molecule, the EC50 on human TLR7 and at human TLR8 was more than 100 µM throughout.
As to `Nc1cc(-c2cnn(CCO)c2)c2ccc(-c3ccn[nH]3)cc2n1` [Compound 348, 2-(4-(2-amino-7-(1H-pyrazol-5-yl)quinolin-4-yl)-1H-pyrazol-1-yl)ethan-1-ol], the IC50 in test [1] amounted to 7.26 µM. The EC50 on human TLR7 and at human TLR8 was more than 100 µM in each case.
Consider `Nc1cc(OC[C@H](O)CN2CCOCC2)c2ccc(-c3ccn[nH]3)cc2n1` [Compound 349, (R)-1-((2-amino-7-(1H-pyrazol-5-yl)quinolin-4-yl)oxy)-3-morpholinopropan-2-ol], for which, in test [1], the IC50 turned out to be 5.8 µM. Moreover, the EC50 on human TLR7 and at human TLR8 was more than 100 µM throughout.
Turning to `Nc1cc(NCCC(=O)N2CCOCC2)c2ccc(-c3ccn[nH]3)cc2n1` [Compound 350, 3-((2-amino-7-(1H-pyrazol-5-yl)quinolin-4-yl)amino)-1-morpholinopropan-1-one], the IC50 in test [1] turned out to be 4.19 µM. The EC50 on human TLR7 and at human TLR8 was more than 100 µM each time.

As usually defined, the IC50 is the concentration that inhibits the measured activity by half. For orientation: EC50 means the concentration at which the effect is half-maximal.
